Measured values: patent US20110009597A1, “RECOMBINANT GANODERMA LUCIDIUM IMMUNOMODULATORY PROTEIN (rLZ-8) AND USES THEREOF” (priority 2008, published 2011)

Assays:
S180 cells = assay: Mouse transplanted S180 subcutaneous tumor inhibition; format: in vivo, Mice; settings: CTX 20 mg·kg^−1 intraperitoneal
Description: (§1) Mice, 18-22 g, males and females were equally divided, provided by Jilin University Laboratory Animal Center; Mice Ehrlich ascites cells strain, provided by our laboratory S180; Cyclophosphamide (CTX), offered by Jiangsu Hengrui Medicine Co., Ltd., lot number: 06101921. S180 ascites tumors and solid tumors in experiment group were divided into normal control group, negative control group, positive control group, rLZ-8 low-dose treatment group (0.25 mg·kg^−1), rLZ-8 medium-dose treatment group (0.5 mg·kg^−1), rLZ-8 high-dose treatment group (1 mg·kg^−1). For each group 10 mice.
(§2) Select well-growing S180 cells, dilute appropriately with sterile saline into a tumor cell suspension, cell counts for 10^7·L^−1, under the right armpit of each mouse inoculated subcutaneously 0.2 ml (except for the normal control group). Treatment after 24 h of vaccination. Normal control group and negative control group were given saline 0.2 ml·each^−l·d^−1, intraperitoneal injection; positive control group were given cyclophosphamide 20 mg·kg^−1, intraperitoneal injection. rLZ-8 treatment groups were given doses of tail venous injection respectively, 0.2 ml·each^−1·d^−1, in 10 consecutive days. Draw blood from orbital venous plexus 10 days before and after medication respectively, sent to Jilin University No. 1 Hospital clinical laboratory to test and analyze the number of WBC. Kill all mice the next day of drug withdrawal at cervical dislocation, dissect anatomically and take out the tumors, weigh tumors, calculate the inhibition rate using the following equation:
Inhibition rate (%)=(average tumore weight of the control group−average tumore weight of the experiment group)/average tumor weight of the control group×100%

WBC [1] = assay: WBC numbers in H22 tumor-bearing mice; settings: CTX 20 mg·kg^−1
Description: (§3) Mice, weight 18-22g, males and females were divided equally, from Jilin University Laboratory Animal Center. Mouse hepatoma cell strain H22, offered by our laboratory. Cyclophosphamide (CTX), offered by Jiangsu Hengrui Medicine Co., Ltd., lot number: 06101921.
(§4) H22 hepatoma cells experiment group were divided into normal control group, negative control group, positive control group, rLZ-8 low-dose treatment group (0.25 mg·kg^−1), rLZ-8 medium-dose treatment group (0.5 mg·kg^−1), rLZ-8 high-dose treatment group (1 mg·kg^−1). For each group 10 mice.
H22 subcutaneous tumor tumor inhibition experiment methods: Select well-growing 1-122 cells, dilute appropriately with sterile saline into a tumor cell suspension, cell counts for 10^7·L^−1, under the right armpit of each mouse inoculated subcutaneously 0.2 ml (except for the normal control group). Treatment after 24 h of vaccination. […] Kill all the mice the next day of drug withdrawal at cervical dislocation, dissected anatomically and took out the tumors, weigh tumors, calculated the inhibition rate using the following equation: […]

WBC [2] = assay: Number of leukocytes in S180 tumor-bearing mice; settings: CTX 20 mg·kg^−1
Description: as §1
as §2, with “Kill all mice the next day of drug withdrawal at cervical dislocation, dissect anatomically and take out the tumors, weigh tumors, calculate the inhibition rate using the following equation:” left out

[3] = test system: Mouse hepatoma cell strain H22; assay: H22 subcutaneous tumor inhibition experiment; format: in vivo, Mice; settings: CTX 20 mg·kg^−1 intraperitoneal
Description: as §3, §4
H22 subcutaneous tumor tumor inhibition experiment methods: Select well-growing 1-122 cells, dilute appropriately with sterile saline into a tumor cell suspension, cell counts for 10^7·L^−1, under the right armpit of each mouse inoculated subcutaneously 0.2 ml (except for the normal control group). Treatment after 24 h of vaccination. Normal control group and negative control group were given saline 0.2 ml·each^−1·d^−1, intraperitoneal injection; positive control group were given cyclophosphamide 20 mg·kg^−1, 0.2 ml·each^−1·d^−1, intraperitoneal injection. rLZ-8 treatment groups were given doses of tail venous injection respectively, 0.2 ml·each^−1·d^−1, in 10 consecutive days. Draw blood from orbital venous plexus 10 days before and after medication respectively, sent to Jilin University No. 1 Hospital clinical laboratory to test and analyze the number of WBC. Kill all the mice the next day of drug withdrawal at cervical dislocation, dissected anatomically and took out the tumors, weigh tumors, calculated the inhibition rate using the following equation:
Inhibition rate (%)=(average tumore weight of the control group−average tumor weight of the experiment group)/average tumor weight of the control group×100%

rabbit chondrocytes = assay: FITC-rLZ-8 labeling of primary rabbit chondrocytes; format: binding; settings: FITC-rLZ-8 0.25 μg·ml^−1, 1 h, 37° C.
Description: Japanese white rabbits (male, 2.5 kg) 4; surgical instruments; 025% trypsogen+0.02% EDTA; 0.2% collagenasell; D-Hanks; IMDM medium ([…], vitamin C, double-antibody); 0.025 mg·ml^−1 Poly-lysine solution; sterile water for injection (WFI).
Fix the experiment animals and execute them with air embolism, skinned abdominal in the middle and exposed the limbs, cutting the muscle fascia with scissors, disconnected the backbone from os longum, remove carefully the entire knee, hip and shoulder bones, with a rough pruning, immersed into D-Hanks. Moved the beaker with tissues into the super-clean units, move the tissues after pruning and cleansing into the 2nd sterile D-Hanks cup; assemble the knife, cutting a thin layer of cartilage off, use curved forceps move into the 6 cm culture incubator, washing with D-Hanks three times, discard majority of D-Hanks, cut the cartilage into 1 mm slices with ophthalmic scissors, discard majority of D-Hanks, spoon removing the broken bone vials into a 10 cm^2 culture flask, mix with trypsogen EDTA for digestion, 37° C., 30 min; replace the trypsogen for collagenase, put it into the hatching incubator of 37° C., taking out and shaking 5 min every 1 h, with 4-4.5 h, finish digestion. Prepare it to the cell suspension solution and mix 3 ml IMDM containing FBS 15%, 5×10^4·ml^−1 vaccinated into the culture flask. […]

HL-60 cells = assay: FITC-rLZ-8 labeling of HL-60 cells; format: binding
Description: Fluorescence microscope 80i (Nikon), IMDM cell culture medium (Hyclone), fetal bovine serum (FBS, Gibco), FITC-rLZ-8 and isotonic PBS buffer (pH7.2) Prepared by our laboratory.
Vaccinated the HL-60 by 2×106 inoculation on 24-hole plate, each hole 0.5 ml, with IMDM (2% FBS) culture medium prepared FITC-rLZ-8 for 100 ng·ml^−1, each hole 0.5 ml hatching (37° C.), establish a control group, experiment group 1 h and experiment group 6 h, draw the cells respectively from 1 h and 6 h, mixing into 1.5 ml EP tube, 1000 r·min^−1 centrifuge, clear the supernatant, wash with PBS 3 times, re-suspend after washing.

rat myocardial tissues = assay: FITC-rLZ-8 labeling of rat myocardial tissues; format: binding; settings: FITC-rLZ-8 100 ng·ml^−1, 1 h, 37° C.
Description: Leica CM1850 frozen slicer; wistar rat; fluorescence microscope 80i (Nikon); isotonic PBS buffer (pH7.2); fetal bovine serum (FBS, Gibco); FITC-rLZ-8 is prepared by our laboratory. Cut the rats at neck and kill them, and strip the hearts, put them to frozen microtome till the temperature dropped to −20° C. for slicing, hatching for 1 h at 37° C. when the myocaridial and PBS preparation of FITC-rLZ-8 solution (100 ng·ml^−1), observing under fluorescence microscope to observe, and establish a blank control group.

Molecule | Inhibition rate (%) (S180 cells) | Tumor weight (S180 cells) [g] | WBC numbers, 10th day of medication (WBC [1]) | Number of leukocytes, 10th day of medication (WBC [2]) | Inhibition rate (%) [3] [%] | Tumor weight [3] [g] | fluorescence of rabbit chondrocytes (rabbit chondrocytes) | cell appearance of HL-60 (HL-60 cells; FITC-rLZ-8 100 ng·ml^−1, group 6 h) | fluorescence of HL-60 cells (HL-60 cells; FITC-rLZ-8 100 ng·ml^−1, incubation of 1 h and 6 h) | fluorescence of myocardial tissues (rat myocardial tissues)
O=P1(N(CCCl)CCCl)NCCCO1 (stereo not shown) [CTX, Cyclophosphamide, reference compound] | 65.3 | 0.35 ± 0.02 | 4.49 ± 0.21 | 4.41 ± 0.25 | 62.5 | 0.45 ± 0.02 | – | – | – | –
FITC-rLZ-8: rLZ-8 labelled with Fluorescein-5-Isothiocyanate (FITC) (conjugate, UniProt P14945 2-111, looked up, FITC label) Immunomodulatory protein Ling …: SDTALIFRLAWDVKKLSFDYTPNWGRGNPNNFIDTVTFPKVLTDKAYTYRVAVSGRNLGVKPSYAVESDGSQKVNFLEYNSGYGIADTNTIQVFVVDPDTNNDFIIAQWN | – | – | – | – | – | – | without green fluorescence | agglutination of cells | strong green fluorescence | without visible fluorescence
